Laboratory results from US12435089B2, “3-oxadiazolyl substituted pyrazolo[1,5,a]pyrimidines for ROS1, NTRK, and ALK mediated diseases” (TYK MEDICINES, INC., priority 2019, dated 2025).
Like-named read-outs stand apart in the source and are kept apart here.

What was measured:
Ba/F3-CD74-ROS1-G2032R = assay: Inhibition of cell proliferation (CellTiter-Glo), Ba/F3-CD74-ROS1-G2032R; type: cell-based; settings: 72 hours;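 also: Ba/F3 cell line expressing the CD74-ROS1 fusion with G2032R mutation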
Method: (§1) The experiment of inhibiting cell proliferation by compounds was carried out in Hefei Zhongkeprecedo Biomedical Technology Co., Ltd. The Ba/F3 engineered cell line stably transfected with different kinase genes was recovered with RPMI 1640 medium (Biological Industries, Israel)+10% fetal bovine serum (Biological Industries, Israel)+1% double antibody (Penicillin Streptomycin solution, Coring, USA) and cultivated two generations. The logarithmic growth phase cell suspension was taken, and 2000 cells/well were inoculated on 96-well white cell culture plate (Corning 3917, NY, USA) with a volume of 95 μL per well. 5 μL of 20×DMSO solution of the compound to be tested was added into the culture plate containing 95 μL of cell suspension. The blank control group was added with corresponding volume of DMSO, mixed well, and incubated in a 5% CO2 incubator at 37° C. for 72 hours. CellTiter-Glo was used to detect cell viability.

TRKA = TRKA (Homo sapiens (Human), UniProt P04629); assay: Radio-tagged HotSpot kinase assay, TRKA;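 also: kinase activity measured through incorporation of 33P from labelled ATP into substrate, 120 min at room temperature, relative to a DMSO-only blank control, reported as inhibition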
Sequence of TRKA (P04629 33-796): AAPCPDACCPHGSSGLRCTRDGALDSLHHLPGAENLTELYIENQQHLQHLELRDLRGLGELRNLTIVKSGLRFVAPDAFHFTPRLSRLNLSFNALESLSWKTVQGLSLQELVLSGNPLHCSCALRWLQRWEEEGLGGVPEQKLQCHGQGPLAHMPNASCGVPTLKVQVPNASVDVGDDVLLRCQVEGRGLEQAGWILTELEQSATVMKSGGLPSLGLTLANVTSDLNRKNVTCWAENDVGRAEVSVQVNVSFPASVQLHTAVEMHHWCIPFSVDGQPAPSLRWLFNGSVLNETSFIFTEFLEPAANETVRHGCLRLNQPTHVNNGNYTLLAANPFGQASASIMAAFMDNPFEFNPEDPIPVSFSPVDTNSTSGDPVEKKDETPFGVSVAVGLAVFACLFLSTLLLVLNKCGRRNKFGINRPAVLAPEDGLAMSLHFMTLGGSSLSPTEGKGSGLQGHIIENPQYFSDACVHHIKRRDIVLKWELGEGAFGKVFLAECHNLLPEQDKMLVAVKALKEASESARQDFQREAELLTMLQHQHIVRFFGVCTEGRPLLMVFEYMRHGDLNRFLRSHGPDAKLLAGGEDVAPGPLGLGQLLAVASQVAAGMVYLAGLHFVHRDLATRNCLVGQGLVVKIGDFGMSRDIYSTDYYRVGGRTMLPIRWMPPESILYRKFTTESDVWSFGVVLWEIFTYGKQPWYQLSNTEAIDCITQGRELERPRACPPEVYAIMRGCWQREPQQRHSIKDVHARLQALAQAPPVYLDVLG
Method: (§2) Inhibition of protein kinase activity by compounds was carried out on the Radio-tagged HotSpot kinase experimental platform of Reaction Biology Corporation. Fresh reaction solution (20 mM HEPESpH 7.5, 10 mM MgCl2, 1 mM EGTA, 0.02% Brij35, 0.02 mg/ml BSA, 0.1 mM Na3VO4, 2 mM DTT, 1% DMSO) containing corresponding substrates was prepared, cofactor and kinase to be tested were added into the above solution and mixed gently. Echo550 pipetting system was used to add the test compound DMSO solution to each well (the blank control group was added with the corresponding volume of DMSO), then 33P-ATP (with a final specific activity of 0.01 μCi/μL) was added to start the reaction. The reaction solution was incubated at room temperature for 120 minutes.

TRKB = TRKB (Homo sapiens (Human), UniProt Q16620); assay: Radio-tagged HotSpot kinase assay, TRKB; type: biochemical; settings: 33P-ATP, 120 min, room temperature
Sequence of TRKB (Q16620 32-822): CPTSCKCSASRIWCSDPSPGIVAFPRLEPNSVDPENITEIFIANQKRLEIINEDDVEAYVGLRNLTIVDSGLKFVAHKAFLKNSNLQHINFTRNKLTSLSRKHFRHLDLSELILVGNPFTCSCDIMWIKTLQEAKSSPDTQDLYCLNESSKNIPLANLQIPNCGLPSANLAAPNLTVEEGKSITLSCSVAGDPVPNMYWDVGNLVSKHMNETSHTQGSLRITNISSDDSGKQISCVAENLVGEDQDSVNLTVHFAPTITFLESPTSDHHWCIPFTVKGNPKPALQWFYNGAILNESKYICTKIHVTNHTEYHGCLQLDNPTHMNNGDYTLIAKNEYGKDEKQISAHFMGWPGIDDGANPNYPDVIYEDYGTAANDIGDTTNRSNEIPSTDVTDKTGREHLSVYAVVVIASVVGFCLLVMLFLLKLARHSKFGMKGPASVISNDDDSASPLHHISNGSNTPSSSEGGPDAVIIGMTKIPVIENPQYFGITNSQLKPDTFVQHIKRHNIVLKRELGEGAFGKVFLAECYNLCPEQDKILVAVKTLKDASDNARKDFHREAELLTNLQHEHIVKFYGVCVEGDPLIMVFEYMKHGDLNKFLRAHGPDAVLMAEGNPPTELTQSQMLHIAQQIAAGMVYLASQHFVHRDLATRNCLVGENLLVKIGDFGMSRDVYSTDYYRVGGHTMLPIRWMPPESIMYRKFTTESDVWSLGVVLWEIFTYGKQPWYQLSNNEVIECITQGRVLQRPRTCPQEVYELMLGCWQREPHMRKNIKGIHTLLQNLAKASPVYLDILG
Method: as §2

ALK = ALK (Homo sapiens (Human), UniProt Q9UM73); assay: Radio-tagged HotSpot kinase assay, ALK; type: biochemical; settings: 33P-ATP, 120 min, room temperature
Method: as §2

TRKC = TRKC (Homo sapiens (Human), UniProt Q16288); assay: Radio-tagged HotSpot kinase assay, TRKC; type: biochemical; settings: 33P-ATP, 120 min, room temperature
Sequence of TRKC (Q16288 32-839): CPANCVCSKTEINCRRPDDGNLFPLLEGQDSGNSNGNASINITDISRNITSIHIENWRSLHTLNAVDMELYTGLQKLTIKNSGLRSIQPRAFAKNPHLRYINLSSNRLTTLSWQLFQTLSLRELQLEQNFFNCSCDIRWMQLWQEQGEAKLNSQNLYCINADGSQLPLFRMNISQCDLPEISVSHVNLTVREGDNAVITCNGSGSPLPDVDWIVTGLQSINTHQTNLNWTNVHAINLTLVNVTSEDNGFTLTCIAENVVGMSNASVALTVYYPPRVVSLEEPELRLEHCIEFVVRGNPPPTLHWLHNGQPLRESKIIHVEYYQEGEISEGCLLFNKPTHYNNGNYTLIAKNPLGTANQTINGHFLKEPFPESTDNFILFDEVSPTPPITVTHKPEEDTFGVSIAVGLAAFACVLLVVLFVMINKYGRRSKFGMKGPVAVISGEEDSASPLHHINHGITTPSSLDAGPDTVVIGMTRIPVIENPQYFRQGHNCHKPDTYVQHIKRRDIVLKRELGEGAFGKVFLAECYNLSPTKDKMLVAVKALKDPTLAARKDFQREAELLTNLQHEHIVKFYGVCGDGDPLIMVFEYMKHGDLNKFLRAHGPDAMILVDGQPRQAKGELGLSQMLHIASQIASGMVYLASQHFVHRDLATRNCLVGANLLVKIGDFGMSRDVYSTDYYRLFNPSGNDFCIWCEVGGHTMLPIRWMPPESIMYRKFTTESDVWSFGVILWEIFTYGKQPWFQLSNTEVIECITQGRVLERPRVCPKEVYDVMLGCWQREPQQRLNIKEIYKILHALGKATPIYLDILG
Method: as §2

ROS1 = ROS1 (Homo sapiens (Human), UniProt P08922); assay: Radio-tagged HotSpot kinase assay, ROS1
Sequence of ROS1 (P08922 28-2347): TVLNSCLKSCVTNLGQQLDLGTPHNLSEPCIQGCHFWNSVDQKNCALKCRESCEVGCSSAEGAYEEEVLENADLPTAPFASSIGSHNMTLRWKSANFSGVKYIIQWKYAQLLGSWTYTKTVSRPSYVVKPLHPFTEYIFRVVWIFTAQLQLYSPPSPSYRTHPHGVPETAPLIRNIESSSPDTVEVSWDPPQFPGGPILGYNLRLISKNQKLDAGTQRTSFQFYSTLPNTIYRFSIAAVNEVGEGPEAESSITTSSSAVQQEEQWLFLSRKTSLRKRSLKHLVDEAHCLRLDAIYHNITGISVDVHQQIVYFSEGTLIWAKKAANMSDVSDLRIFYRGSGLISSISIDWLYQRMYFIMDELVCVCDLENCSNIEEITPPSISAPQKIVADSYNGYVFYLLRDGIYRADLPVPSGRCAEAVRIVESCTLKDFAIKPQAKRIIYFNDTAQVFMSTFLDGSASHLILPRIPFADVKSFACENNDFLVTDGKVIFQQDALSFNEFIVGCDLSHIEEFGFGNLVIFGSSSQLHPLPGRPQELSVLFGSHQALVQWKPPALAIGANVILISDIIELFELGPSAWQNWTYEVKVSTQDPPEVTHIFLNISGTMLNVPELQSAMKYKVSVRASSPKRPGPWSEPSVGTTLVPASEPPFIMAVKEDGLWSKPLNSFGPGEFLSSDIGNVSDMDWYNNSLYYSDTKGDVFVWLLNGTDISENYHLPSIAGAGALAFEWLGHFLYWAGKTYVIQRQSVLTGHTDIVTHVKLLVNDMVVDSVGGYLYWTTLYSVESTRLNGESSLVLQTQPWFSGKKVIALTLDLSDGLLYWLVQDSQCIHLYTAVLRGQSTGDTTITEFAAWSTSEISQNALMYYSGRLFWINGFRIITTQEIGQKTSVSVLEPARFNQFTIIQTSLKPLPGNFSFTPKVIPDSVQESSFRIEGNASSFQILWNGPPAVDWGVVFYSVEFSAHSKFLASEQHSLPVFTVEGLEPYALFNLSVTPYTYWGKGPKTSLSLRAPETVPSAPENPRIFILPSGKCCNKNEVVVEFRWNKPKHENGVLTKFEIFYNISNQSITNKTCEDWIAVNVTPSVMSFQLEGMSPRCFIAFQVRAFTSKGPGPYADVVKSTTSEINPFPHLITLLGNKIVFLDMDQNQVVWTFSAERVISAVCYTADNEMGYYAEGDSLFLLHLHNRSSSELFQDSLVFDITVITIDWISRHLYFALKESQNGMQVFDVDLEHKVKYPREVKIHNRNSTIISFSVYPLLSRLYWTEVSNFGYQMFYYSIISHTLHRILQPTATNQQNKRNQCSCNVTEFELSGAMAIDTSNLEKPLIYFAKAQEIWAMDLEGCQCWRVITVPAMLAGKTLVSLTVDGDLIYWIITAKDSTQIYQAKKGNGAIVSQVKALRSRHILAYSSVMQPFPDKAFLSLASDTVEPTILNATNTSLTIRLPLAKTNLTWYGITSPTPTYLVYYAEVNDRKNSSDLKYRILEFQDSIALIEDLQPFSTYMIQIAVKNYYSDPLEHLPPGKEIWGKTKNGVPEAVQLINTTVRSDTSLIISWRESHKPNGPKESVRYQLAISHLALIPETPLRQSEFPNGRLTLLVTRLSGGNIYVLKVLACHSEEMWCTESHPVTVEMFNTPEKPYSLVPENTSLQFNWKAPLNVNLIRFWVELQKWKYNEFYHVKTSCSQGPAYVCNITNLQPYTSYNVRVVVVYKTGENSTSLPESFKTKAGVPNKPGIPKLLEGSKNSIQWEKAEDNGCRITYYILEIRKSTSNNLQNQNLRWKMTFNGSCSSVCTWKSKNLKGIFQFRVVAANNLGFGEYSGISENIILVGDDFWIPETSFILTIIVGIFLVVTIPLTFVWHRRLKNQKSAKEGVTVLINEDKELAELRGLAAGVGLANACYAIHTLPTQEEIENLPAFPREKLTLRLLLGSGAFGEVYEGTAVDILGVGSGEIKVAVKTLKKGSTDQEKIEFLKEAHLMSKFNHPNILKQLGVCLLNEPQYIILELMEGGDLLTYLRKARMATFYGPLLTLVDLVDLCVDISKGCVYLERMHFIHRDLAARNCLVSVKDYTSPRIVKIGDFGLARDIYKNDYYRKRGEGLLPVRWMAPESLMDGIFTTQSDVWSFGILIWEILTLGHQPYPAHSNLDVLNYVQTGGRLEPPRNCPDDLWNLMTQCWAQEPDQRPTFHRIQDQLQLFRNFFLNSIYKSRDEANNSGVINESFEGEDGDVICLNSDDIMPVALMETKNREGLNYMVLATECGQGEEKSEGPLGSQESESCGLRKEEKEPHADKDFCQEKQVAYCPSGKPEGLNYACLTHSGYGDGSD
Method: as §2

Ba/F3-LMNA-NTRK1 = assay: Inhibition of cell proliferation (CellTiter-Glo), Ba/F3-LMNA-NTRK1; type: cell-based; settings: 72 hours
Method: as §1

Ba/F3-LMNA-NTRK1-G595R = assay: Inhibition of cell proliferation (CellTiter-Glo), Ba/F3-LMNA-NTRK1-G595R; type: cell-based; settings: 72 hours
Method: as §1

Ba/F3-CD74-ROS1 = assay: Inhibition of cell proliferation (CellTiter-Glo), Ba/F3-CD74-ROS1; type: cell-based; settings: 72 hours
Method: as §1

TRKA (G677C) = TRKA (G677C) (Homo sapiens, UniProt P04629, G667C); assay: Radio-tagged HotSpot kinase assay, TRKA (G677C); type: biochemical; settings: 33P-ATP, 120 min, room temperature
Sequence of TRKA (G677C) (P04629 33-796 G667C limits assumed): as the sequence (P04629 33-796) above, with G635C counted along it
Method: as §2

TRKA (G595R) = TRKA (G595R) (Homo sapiens (Human), UniProt P04629, G595R); assay: Radio-tagged HotSpot kinase assay, TRKA (G595R)
Sequence of TRKA (G595R) (P04629 33-796 G595R): as the sequence (P04629 33-796) above, with G563R counted along it
Method: as §2

ROS1 (G2032R) = ROS1 (G2032R) (Homo sapiens (Human), UniProt P08922, G2032R); assay: Radio-tagged HotSpot kinase assay, ROS1 (G2032R)
Sequence of ROS1 (G2032R) (P08922 28-2347 G2032R): as the sequence (P08922 28-2347) above, with G2005R counted along it
Method: as §2

ALK (G1202R) = ALK (G1202R) (Homo sapiens (Human), UniProt Q9UM73, G1202R); assay: Radio-tagged HotSpot kinase assay, ALK (G1202R); type: biochemical; settings: 33P-ATP, 120 min, room temperature
Method: as §2

[1] = read-out: ROS1 (G2032R) (IC50/nM), 33P-ATP, 120 min, room temperature
[2] = read-out: ROS1 (IC50/nM), 33P-ATP, 120 min, room temperature

`COc1ccc(F)cc1[C@@H](C)Nc1nc2c(C3=NOC(C)(C)N3)cnn2cc1F` [Example 20] gave an IC50 (Ba/F3-CD74-ROS1-G2032R) of 43.6 nM.

`Cc1ccc(F)cc1[C@@H](C)Nc1ccn2ncc(C3=NOC(C)(C)N3)c2n1` [Example 42] gave an IC50 (TRKA) of 0.5 to 5 nM, an IC50 (TRKB) of 0.5 to 5 nM and an IC50 (ALK) of 5 to 50 nM. For the same compound, the IC50 (TRKC) was 0.5 to 5 nM and the IC50 (ROS1) was 0.5 to 5 nM.

With `COc1ccc(F)cc1[C@@H](C)Nc1ccn2ncc(C3=NOC4(CCCC4)N3)c2n1` [Example 44] the IC50 (Ba/F3-LMNA-NTRK1) was 14.2 nM, the IC50 (Ba/F3-CD74-ROS1-G2032R) was 59.2 nM and the IC50 (Ba/F3-LMNA-NTRK1-G595R) was 13.9 nM. The IC50 (Ba/F3-CD74-ROS1) was 6.9 nM and the IC50 (TRKA (G677C)) was 0.5 to 5 nM.

`COc1ccc(F)cc1[C@@H](C)Nc1ccn2ncc(C3=NOC(C)(c4ccccn4)N3)c2n1` (some centres unmarked) [Example 48] gave an IC50 (TRKA (G677C)) of 50 to 500 nM.

Compound `C[C@@H](Nc1ccn2ncc(C3=NOC(C)(C)N3)c2n1)c1cccc(F)c1` [Example 31] has an IC50 (Ba/F3-CD74-ROS1-G2032R) of 54.4 nM and an IC50 (Ba/F3-LMNA-NTRK1-G595R) of 3.5 nM.

`COc1c(F)cc(F)cc1[C@@H](C)Nc1ccn2ncc(C3=NOC(C)(C)N3)c2n1` [Example 30] showed an IC50 (Ba/F3-LMNA-NTRK1) of 5.8 nM, an IC50 (Ba/F3-CD74-ROS1-G2032R) of 16.3 nM and an IC50 (Ba/F3-LMNA-NTRK1-G595R) of 7 nM. The IC50 (Ba/F3-CD74-ROS1) was 2.2 nM.

In the case of `C[C@@H](Nc1ccn2ncc(C3=NOC(C)(C)N3)c2n1)c1cc(F)cc2ccccc12` [Example 53], the IC50 (Ba/F3-LMNA-NTRK1) is reported as 18.2 nM, the IC50 (Ba/F3-CD74-ROS1-G2032R) is reported as 81.1 nM and the IC50 (Ba/F3-LMNA-NTRK1-G595R) is reported as 30.1 nM. For the same compound, the IC50 (Ba/F3-CD74-ROS1) was 8.4 nM.

With `COc1c(F)ccc(F)c1[C@@H](C)Nc1ccn2ncc(C3=NOC(C)(C)N3)c2n1` [Example 2] the IC50 (Ba/F3-LMNA-NTRK1-G595R) was 113 nM.

Work on `COc1ccc(F)c(Cl)c1[C@@H](C)Nc1ccn2ncc(C3=NOC(C)(C)N3)c2n1` [Example 1] yielded an IC50 (Ba/F3-LMNA-NTRK1-G595R) of 458 nM.

For `C[C@@H](Nc1ccn2ncc(C3=NOC(C)(C)N3)c2n1)c1cc(F)ccc1O` [Example 68], the IC50 (TRKA (G595R); read-out: TRKA (G595R) (IC50/nM), 33P-ATP, 120 min, room temperature) was less than 0.5 nM, the IC50 (TRKA; read-out: TRKA (IC50/nM), 33P-ATP, 120 min, room temperature) was less than 0.5 nM and the IC50 (ROS1 (G2032R); [1]) was less than 0.5 nM. For the same compound, the IC50 (TRKB) was less than 0.5 nM, the IC50 (TRKC) was less than 0.5 nM and the IC50 (ROS1; [2]) was less than 0.5 nM.

Work on `COc1ccc(F)cc1[C@@H](C)Oc1ccn2ncc(C3=NOC(C)(C)N3)c2n1` [Example 71] yielded an IC50 (Ba/F3-LMNA-NTRK1) of 76.9 nM, an IC50 (TRKA (G595R)) of 0.5 to 5 nM and an IC50 (Ba/F3-CD74-ROS1-G2032R) of 185 nM. The IC50 (TRKA) was 0.5 to 5 nM, the IC50 (ROS1 (G2032R)) was 0.5 to 5 nM and the IC50 (TRKB) was 0.5 to 5 nM. The IC50 (Ba/F3-LMNA-NTRK1-G595R) was 110 nM, the IC50 (Ba/F3-CD74-ROS1) was 32.2 nM and the IC50 (TRKC) was 0.5 to 5 nM. It also gave an IC50 (ROS1) of 0.5 to 5 nM.

Compound `[2H]C([2H])([2H])Oc1ccc(F)cc1[C@@H](C)Nc1nc2c(C3=NOC(C)(C)N3)cnn2cc1F` [Example 6] has an IC50 (Ba/F3-LMNA-NTRK1) of 2 nM, an IC50 (Ba/F3-CD74-ROS1-G2032R) of 43.7 nM and an IC50 (Ba/F3-LMNA-NTRK1-G595R) of 2.8 nM. For the same compound, the IC50 (Ba/F3-CD74-ROS1) was 6 nM.

`C[C@@H](Nc1ccn2ncc(C3=NOC(C)(C)N3)c2n1)c1cc(F)cnc1OCC(F)(F)F` [Example 15] gave an IC50 (Ba/F3-LMNA-NTRK1) of 3.8 nM, an IC50 (Ba/F3-CD74-ROS1-G2032R) of 34.8 nM and an IC50 (Ba/F3-LMNA-NTRK1-G595R) of 8.6 nM. It also gave an IC50 (Ba/F3-CD74-ROS1) of 4.9 nM.

For `COC(=O)N1CCC2(CC1)NC(c1cnn3ccc(N[C@H](C)c4cc(F)ccc4OC)nc13)=NO2` [Example 55], the IC50 (Ba/F3-LMNA-NTRK1) was 26.7 nM, the IC50 (TRKA (G595R)) was 0.5 to 5 nM and the IC50 (Ba/F3-CD74-ROS1-G2032R) was 47.9 nM. It also gave an IC50 (TRKA) of 0.5 to 5 nM, an IC50 (ROS1 (G2032R); [1]) of less than 0.5 nM and an IC50 (TRKB) of less than 0.5 nM. For the same compound, the IC50 (Ba/F3-LMNA-NTRK1-G595R) was 25.4 nM, the IC50 (Ba/F3-CD74-ROS1) was 6.6 nM and the IC50 (TRKC) was less than 0.5 nM. It also gave an IC50 (ROS1; [2]) of less than 0.5 nM.

Work on `COc1cc(F)c(F)cc1[C@@H](C)Nc1ccn2ncc(C3=NOC(C)(C)N3)c2n1` [Example 32] yielded an IC50 (Ba/F3-LMNA-NTRK1) of 45.8 nM, an IC50 (Ba/F3-LMNA-NTRK1-G595R) of 161 nM and an IC50 (Ba/F3-CD74-ROS1) of 52.1 nM.

In the case of `C[C@@H](Nc1ccn2ncc(C3=NOC(C)(C)N3)c2n1)c1c(Cl)ccc(F)c1Cl` [Example 14], the IC50 (TRKA (G595R)) is reported as 5 to 50 nM, the IC50 (TRKA) is reported as 0.5 to 5 nM and the IC50 (ROS1 (G2032R)) is reported as 0.5 to 5 nM. The IC50 (TRKB) was 0.5 to 5 nM, the IC50 (ALK (G1202R)) was 5 to 50 nM and the IC50 (TRKA (G677C)) was 5 to 50 nM. The IC50 (TRKC) was 0.5 to 5 nM and the IC50 (ROS1) was 0.5 to 5 nM.

`C[C@@H](Nc1ccn2ncc(C3=NOC(C)(C)N3)c2n1)c1ccc(F)cc1` [Example 25] gave an IC50 (TRKA) of 50 to 500 nM.

`C[C@@H](Nc1ccn2ncc(C3=NOC(C)(C)N3)c2n1)c1cc(F)ccc1OC(F)(F)F` [Example 17] showed an IC50 (Ba/F3-LMNA-NTRK1) of 2.3 nM, an IC50 (Ba/F3-CD74-ROS1-G2032R) of 23.5 nM and an IC50 (Ba/F3-LMNA-NTRK1-G595R) of 5.1 nM. For the same compound, the IC50 (Ba/F3-CD74-ROS1) was 2.8 nM.

Work on `Cc1nc(-c2cnn3ccc(N[C@H](C)c4cc(F)ccc4O)nc23)no1` [Example 67] yielded an IC50 (TRKA (G595R)) of 5 to 50 nM, an IC50 (TRKA) of 5 to 50 nM and an IC50 (ROS1 (G2032R)) of 5 to 50 nM. For the same compound, the IC50 (TRKB) was 0.5 to 5 nM, the IC50 (TRKC) was 0.5 to 5 nM and the IC50 (ROS1) was 0.5 to 5 nM.

`C[C@H](Nc1ccn2ncc(C3=NOC(C)(C)N3)c2n1)c1cc(F)cc2ccccc12` [Example 54] was tested, and the IC50 (TRKA (G595R)) was 0.5 to 5 nM, the IC50 (TRKA) was 0.5 to 5 nM and the IC50 (ROS1 (G2032R); [1]) was less than 0.5 nM. It also gave an IC50 (TRKB) of 0.5 to 5 nM, an IC50 (TRKC) of less than 0.5 nM and an IC50 (ROS1; [2]) of less than 0.5 nM.
